{
  "source": "patent US4283527A",
  "about": "“Erythromycylamine 11,12-carbonate and derivatives thereof” (Pfizer Inc., priority 1980, dated 1981)",
  "key": {"Bacillus subtilis": {"test_system": "Bacillus subtilis", "conditions": "strain 06A001"}, "Enterobacter cloacea": {"test_system": "Enterobacter cloacea", "conditions": "strain 67B009"}, "Neisseria sicca": {"test_system": "Neisseria sicca", "conditions": "strain 66C000"}, "Klebsiella oxytoca": {"test_system": "Klebsiella oxytoca", "conditions": "strain 53D024"}, "Providentia stuarti": {"test_system": "Providentia stuarti", "conditions": "strain 77A013"}, "Providentia retgerii": {"test_system": "Providentia retgerii", "conditions": "strain 77CA025"}, "Streptococcus faecalis": {"test_system": "Streptococcus faecalis", "conditions": "strain 02A006"}, "Morgani morgansus": {"test_system": "Morgani morgansus", "conditions": "strain 97A001"}, "Streptococcus pneumoniae": {"test_system": "Streptococcus pneumoniae", "conditions": "strain 02J012"}, "Pasteurella multocida": {"test_system": "Pasteurella multocida", "conditions": "strain 59A001"}, "Serratia marcescens": {"test_system": "Serratia marcescens", "conditions": "strain 63A017"}, "Hemophilus influenzae": {"test_system": "Hemophilus influenzae", "conditions": "strain 54A036"}, "Enterobacter aeruginosa": {"test_system": "Enterobacter aeruginosa", "conditions": "strain 67A040"}},
  "note": "Like-named read-outs stand apart in the source and are kept apart here.",
  "data": [
    {"substance": "9(S)-Erythromycylamine 11,12-Carbonate", "values": [
      {"measurement": "MIC", "setting": "Bacillus subtilis", "value": 0.10, "unit": "µg/mL"},
      {"measurement": "MIC", "setting": "Enterobacter cloacea", "value": "> 50", "unit": "µg/mL"},
      {"measurement": "MIC", "setting": "Staphylococcus epidermis; strain 01B037R, R = resistant to erythromycin", "value": "> 50", "unit": "µg/mL"},
      {"measurement": "MIC", "setting": "Staphylococcus epidermis; strain 01B111", "value": 0.20, "unit": "µg/mL"},
      {"measurement": "MIC", "setting": "Staphylococcus epidermis; strain 01B126R, R = resistant to erythromycin", "value": "> 50", "unit": "µg/mL"},
      {"measurement": "MIC", "setting": "Escherichia coli; strain 51A125", "value": 25, "unit": "µg/mL"},
      {"measurement": "MIC", "setting": "Escherichia coli; strain 51A129", "value": 25, "unit": "µg/mL"},
      {"measurement": "MIC", "setting": "Escherichia coli; strain 51A266", "value": 25, "unit": "µg/mL"},
      {"measurement": "MIC", "setting": "Escherichia coli; strain 51A470", "value": 0.78, "unit": "µg/mL"},
      {"measurement": "MIC", "setting": "Neisseria sicca", "value": 3.12, "unit": "µg/mL"},
      {"measurement": "MIC", "setting": "Klebsiella pneumoniae; strain 53A009", "value": 50, "unit": "µg/mL"},
      {"measurement": "MIC", "setting": "Klebsiella pneumoniae; strain 53A031", "value": 50, "unit": "µg/mL"},
      {"measurement": "MIC", "setting": "Klebsiella oxytoca", "value": "> 50", "unit": "µg/mL"},
      {"measurement": "MIC", "setting": "Providentia stuarti", "value": "> 50", "unit": "µg/mL"},
      {"measurement": "MIC", "setting": "Providentia retgerii", "value": "> 50", "unit": "µg/mL"},
      {"measurement": "MIC", "setting": "Streptococcus faecalis", "value": 0.39, "unit": "µg/mL"},
      {"measurement": "MIC", "setting": "Morgani morgansus", "value": "> 50", "unit": "µg/mL"},
      {"measurement": "MIC", "setting": "Staphylococcus aureus; strain 01A005", "value": 0.20, "unit": "µg/mL"},
      {"measurement": "MIC", "setting": "Staphylococcus aureus; strain 01A052", "value": 0.20, "unit": "µg/mL"},
      {"measurement": "MIC", "setting": "Staphylococcus aureus; strain 01A110R, R = resistant to erythromycin", "value": "> 50", "unit": "µg/mL"},
      {"measurement": "MIC", "setting": "Staphylococcus aureus; strain 01A400R, R = resistant to erythromycin", "value": 12.5, "unit": "µg/mL"},
      {"measurement": "MIC", "setting": "Streptococcus pneumoniae", "value": 0.10, "unit": "µg/mL"},
      {"measurement": "MIC", "setting": "Pasteurella multocida", "value": 0.39, "unit": "µg/mL"},
      {"measurement": "MIC", "setting": "Pseudomonas aeruginosa; strain 52A104", "value": "> 50", "unit": "µg/mL"},
      {"measurement": "MIC", "setting": "Pseudomonas aeruginosa; strain 52A663", "value": "> 50", "unit": "µg/mL"},
      {"measurement": "MIC", "setting": "Serratia marcescens", "value": "> 50", "unit": "µg/mL"},
      {"measurement": "MIC", "setting": "Streptococcus pyogenes; strain 02C040", "value": 0.78, "unit": "µg/mL"},
      {"measurement": "MIC", "setting": "Streptococcus pyogenes; strain 02C203", "value": "< .02 µg/mL"},
      {"measurement": "MIC", "setting": "Hemophilus influenzae", "value": 3.12, "unit": "µg/mL"},
      {"measurement": "MIC", "setting": "Enterobacter aeruginosa", "value": 50, "unit": "µg/mL"}
    ]}
  ]
}
